Measured values from US20080039482A1, “SULFONAMIDO-MACROCYCLES AS TIE2 INHIBITORS AND SALTS THEREOF, PHARMACEUTICAL COMPOSITIONS COMPRISING SAME, METHODS OF PREPARING SAME AND USES OF SAME” (priority 2006, published 2008).
pIC50: −log10 of the molar value.

Legend:
Tie2 [1] = molecular target: T1, Tie2 (Homo sapiens, UniProt Q02763); test: Tie2 ELISA assay (assay 1): Ang2-stimulated Tie2 autophosphorylation in transfected CHO cells; format: cell-based; design: expressed in transfected cells; host or cells: CHO (DHFR selection); settings: CHO Tie2/DHFR cells stimulated by angiopoietin-2, pIC50 = -log IC50 in molar concentration, read-out: Tie 2 activity (assay 1)
Procedure: Cellular activity of compounds of the present invention as inhibitors of Tie2 kinase activity was measured employing a Tie2 ELISA assay as described in the following paragraphs. Herein CHO cell-cultures, which are stably transfected by known techniques with Tie2 using DHFR deficiency as selection marker, are stimulated by angiopoietin-2. The specific autophosphorylation of Tie2 receptors is quantified with a sandwich-ELISA using anti-Tie2 antibodies for catch and anti-phosphotyrosine antibodies coupled to HRP for detection.
• 96 well tissue culture plate, sterile, Greiner • 96 well FluoroNunc plate MaxiSorp Surface C, Nunc • 96 well plate polypropylene for compound dilution in DMSO • CHO Tie2/DHFR (transfected cells) • PBS−; PBS++, DMSO • MEM alpha Medium with Glutamax-I without Ribonucleosides and Deoxyribonucleosides (Gibco #32561-029) with 10% FCS after dialysis! and 1% PenStrep • Lysis buffer: 1 Tablet “Complete” protease inhibitor • 1 cap Vanadate (1 mL>40 mg/mL; working solution 2 mM) • ad 50 mL with Duschl-Puffer • pH 7.6 • Anti-Tie2-antibody 1:425 in Coating Buffer pH 9.6 • Stock solution: 1.275 mg/mL>working: 3 μg/mL • PBST: 2 bottles PBS (10×)+10 ml Tween, fill up with VE-water • RotiBlock 1:10 in VE-water • Anti-Phosphotyrosine HRP-Conjugated 1:10000 in 3% TopBlock • 3% TopBlock in PBST • BM Chemiluminescence ELISA Substrate (POD) • solution B 1:100 solution A • SF9 cell culture medium • Ang2-Fc in SF9 cell culture medium Cell Experiment: • Dispense 5×10^4 cells/well/98 μL in 96 well tissue culture plate • Incubate at 37° C./5% CO2 • After 24 h add compounds according to desired concentrations • Add also to control and stimulated values without compounds 2 μL DMSO • And mix for a few min at room temperature • Add 100 μL Ang2-Fc to all wells except control, which receives insect medium • Incubate 20 min at 37° C. • Wash 3× with PBS++ • Add 100 μl Lysis buffer/well and shake a couple of min at room temperature • Store lysates at […] before utilizing for the ELISA Performance of Sandwich-ELISA • Coat 96 well FluoroNunc Plate MaxiSorp Surface C with anti-Tie2 mAb • 1:425 in Coating buffer pH 9.6; 100 μL/well overnight at 4° C. • Wash 2× with PBST • Block plates with 250 μL/well RotiBlock 1:10 in VE-water • Incubate for 2 h at room temperature or overnight at 4° C. shaking • Wash 2× in PBST • Add thawed lysates to wells and incubate overnight shaking at 4° C. • Wash 2× with PBST • Add 100 μL/well anti-Phosphotyrosine HRP-Conjugated 1:10000 in 3% • TopBlock (3% TopBlock in PBST) and incubate overnight under shaking • Wash 6× with PBST • Add 100 μL/well BM Chemiluminescence ELISA Substrate (POD) • solutions 1 und 2 (1:100) • Determine luminescence with the LumiCount. Assay 2: Tie-2-Kinase HTRF-Assay Without Kinase Preactivation
Target sequence in this assay (Q02763 23-1124, species assumed): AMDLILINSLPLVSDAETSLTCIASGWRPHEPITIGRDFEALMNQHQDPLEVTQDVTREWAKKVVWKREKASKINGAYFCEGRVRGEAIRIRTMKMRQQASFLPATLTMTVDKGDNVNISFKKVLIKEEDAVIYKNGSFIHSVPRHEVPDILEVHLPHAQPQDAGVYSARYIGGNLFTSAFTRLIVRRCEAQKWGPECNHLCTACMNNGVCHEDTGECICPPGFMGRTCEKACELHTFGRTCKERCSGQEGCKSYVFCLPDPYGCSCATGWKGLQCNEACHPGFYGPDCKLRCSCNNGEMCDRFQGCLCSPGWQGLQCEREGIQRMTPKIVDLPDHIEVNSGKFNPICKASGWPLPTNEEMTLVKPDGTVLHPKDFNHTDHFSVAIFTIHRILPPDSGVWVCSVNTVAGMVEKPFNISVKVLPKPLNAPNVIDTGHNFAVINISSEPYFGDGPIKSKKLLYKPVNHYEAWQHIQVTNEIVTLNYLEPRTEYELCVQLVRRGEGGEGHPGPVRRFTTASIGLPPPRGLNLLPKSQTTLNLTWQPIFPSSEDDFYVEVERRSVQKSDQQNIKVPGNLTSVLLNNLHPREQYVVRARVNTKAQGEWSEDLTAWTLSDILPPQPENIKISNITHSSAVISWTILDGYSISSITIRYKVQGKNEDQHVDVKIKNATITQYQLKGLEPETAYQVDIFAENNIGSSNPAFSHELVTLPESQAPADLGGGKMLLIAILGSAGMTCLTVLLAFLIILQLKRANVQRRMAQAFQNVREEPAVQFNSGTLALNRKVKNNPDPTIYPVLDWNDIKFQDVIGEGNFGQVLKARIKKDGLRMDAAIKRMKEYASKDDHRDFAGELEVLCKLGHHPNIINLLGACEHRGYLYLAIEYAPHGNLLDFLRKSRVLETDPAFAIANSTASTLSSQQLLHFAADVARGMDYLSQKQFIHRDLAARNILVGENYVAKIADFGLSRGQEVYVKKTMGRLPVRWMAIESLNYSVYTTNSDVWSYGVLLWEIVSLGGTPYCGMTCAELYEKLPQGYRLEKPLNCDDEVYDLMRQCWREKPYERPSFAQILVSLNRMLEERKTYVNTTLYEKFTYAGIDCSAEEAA

Tie2 [2] = molecular target: T1, Tie2; test: Tie-2-Kinase HTRF-Assay without kinase preactivation (assay 2); format: biochemical; design: fusion protein of GST and the intracellular domains of Tie-2; GST; made in house; host or cells: insect cells (Hi-5); settings: 10 μM ATP, pIC50 = -log IC50 in molar concentration
Source text: Tie2-inhibitory activity of compounds of the present invention was quantified employing two Tie2 HTRF assay as described in the following paragraphs.
A recombinant fusion protein of GST and the intracellular domains of Tie-2, expressed in insect cells (Hi-5) and purified by Glutathion-Sepharose affinity chromatography was used as kinase. Alternatively, commercially available GST-Tie2-fusion protein (Upstate Biotechnology, Dundee, Scotland) can be used As substrate for the kinase reaction the biotinylated peptide biotin-Ahx-EPKDDAYPLYSDFG (C-terminus in amid form) was used which can be purchased e.g. from the company Biosynthan GmbH (Berlin-Buch, Germany). Detection of phosphorylated product is achieved specifically by a trimeric detection complex consisting of the phosphorylated substrate, streptavidin-XLent (SA-XLent) which binds to biotin, and Europium Cryptate-labeled anti-phosphotyrosine antibody PT66 which binds to phosphorylated tyrosine.
Tie-2 (3.5 ng/measurement point) was incubated for 60 min at 22° C. in the presence of 10 μM adenosine-tri-phosphate (ATP) and 1 μM substrate peptide (biotin-Ahx-EPKDDAYPLYSDFG-NH2) with different concentrations of test compounds (0 μM and concentrations in the range 0.001-20 μM) in 5 μl assay buffer [50 mM Hepes/NaOH pH 7, 10 mM MgCl2, 0.5 mM MnCl2, 1.0 mM dithiothreitol, 0.01% NP40, protease inhibitor mixture (“Complete w/o EDTA” from Roche, 1 tablet per 2.5 ml), 1% (v/v) dimethylsulfoxide]. The reaction was stopped by the addition of 5 μl of an aqueous buffer (25 mM Hepes/NaOH pH 7.5, 0.28% (w/v) bovine serum albumin) containing EDTA (90 mM) and the HTRF (Homogeneous Time Resolved Fluorescence) detection reagents streptavidine-XLent (0.2 μM, from Cis Biointernational, Marcoule, France) and PT66-Eu-Chelate (0.3 ng/μl; a europium-chelate labelled anti-phospho-tyrosine antibody from Perkin Elmer).
The resulting mixture was incubated 1 h at 22° C. to allow the binding of the biotinylated phosphorylated peptide to the streptavidine-XLent and the PT66-Eu-Chelate. Subsequently the amount of phosphorylated substrate peptide was evaluated by measurement of the resonance energy transfer from the PT66-Eu-Chelate to the streptavidine-XLent. Therefore, the fluorescence emissions at 620 nm and 665 nm after excitation at 350 nm was measured in a HTRF reader, e.g. a Rubystar (BMG Labtechnologies, Offenburg, Germany) or a Viewlux (Perkin-Elmer). The ratio of the emissions at 665 nm and at […] was taken as the measure for the amount of phosphorylated substrate peptide. The data were normalised (enzyme reaction without inhibitor=0% inhibition, all other assay components but no enzyme=100% inhibition) and IC50 values were calculated by a 4 parameter fit using an inhouse software.
Target sequence in this assay (Q02763 770-1124 limits assumed, species assumed): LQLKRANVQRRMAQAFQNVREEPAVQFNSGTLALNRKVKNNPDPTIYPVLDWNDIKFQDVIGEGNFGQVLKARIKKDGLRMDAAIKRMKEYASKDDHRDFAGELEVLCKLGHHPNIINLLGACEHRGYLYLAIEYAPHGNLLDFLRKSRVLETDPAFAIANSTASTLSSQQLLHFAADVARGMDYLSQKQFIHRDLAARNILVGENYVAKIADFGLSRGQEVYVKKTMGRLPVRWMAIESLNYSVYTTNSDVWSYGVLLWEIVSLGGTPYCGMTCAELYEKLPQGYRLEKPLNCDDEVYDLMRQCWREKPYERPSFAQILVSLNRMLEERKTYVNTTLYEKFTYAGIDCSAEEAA

Row | Compound | pIC50 (Tie2 [1]) | pIC50 (Tie2 [2])
1 | CC(C)(C(=O)Nc1ccc(-c2cnc3nc2NCCCNS(=O)(=O)c2cccc(c2)N3)cc1)c1ccc(Cl)cc1 [Example 13, 2-(4-Chloro-phenyl)-N-[4-(13,13-dioxo-13λ^6-thia-2,4,8,12,19-pentaaza-tricyclo[12.3.1.1^3,7]-nonadeca-1(18),3(19),4,6,14,16-hexaen-6-yl)-phenyl]-isobutyramide] | 6.00 to 7.00 | > 7.00
2 | Cc1ccc(C2(C(=O)Nc3ccc(-c4cnc5nc4NCCCNS(=O)(=O)c4cccc(c4)N5)cc3)CC2)cc1 [Example 1, 1-p-Tolyl-cyclopropane-carboxylic acid [4-(13,13-dioxo-13λ^6-thia-2,4,8,12,19-pentaaza-tricyclo[12.3.1.1^3,7]nonadeca-1(18),3(19),4,6, 14,16-hexaen-6-yl)-phenyl]-amide] | > 7.00 | > 7.00
3 | O=C(Nc1ccc(-c2cnc3nc2NCCCNS(=O)(=O)c2cccc(c2)N3)cc1)C1(c2cccc(F)c2)CC1 [Example 8, 1-(3-Fluoro-phenyl)-cyclopropane-carboxylic acid [4-(13,13-dioxo-13λ^6-thia-2,4,8,12,19-pentaaza-tricyclo[12.3.1.1^3,7]nonadeca-1(18),3(19),4,6,14,16-hexaen-6-yl)-phenyl]-amide] | > 7.00 | > 7.00
4 | COc1cccc(C2(C(=O)Nc3ccc(-c4cnc5nc4NCCCNS(=O)(=O)c4cccc(c4)N5)cc3)CC2)c1 [Example 3, 1-(3-Methoxy-phenyl)-cyclopropane-carboxylic acid [4-(13,13-dioxo-13λ^6-thia-2,4,8,12,19-pentaaza-tricyclo[12.3.1.1^3,7]nonadeca-1(18),3(19),4,6,14,16-hexaen-6-yl)-phenyl]-amide] | > 7.00 | > 7.00
5 | O=C(Nc1ccc(-c2cnc3nc2NCCCNS(=O)(=O)c2cccc(c2)N3)cc1)C1(c2cc(C(F)(F)F)ccc2F)CC1 [Example 12, 1-(2-Fluoro-5-trifluoromethyl-phenyl)-cyclopropane-carboxylic acid [4-(13,13-dioxo-13λ^6-thia-2,4,8,12,19-pentaaza-tricyclo[12.3.1.1^3,7]-nonadeca-1(18),3(19),4,6,14,16-hexaen-6-yl)-phenyl]-amide] | > 7.00 | > 7.00
6 | COc1ccc(C2(C(=O)Nc3ccc(-c4cnc5nc4NCCCNS(=O)(=O)c4cccc(c4)N5)cc3)CC2)cc1 [Example 4, 1-(4-Methoxy-phenyl)-cyclopropane-carboxylic acid [4-(13,13-dioxo-13λ^6-thia-2,4,8,12,19-pentaaza-tricyclo[12.3.1.1^3,7]-nonadeca-1(18),3(19),4,6,14,16-hexaen-6-yl)-phenyl]-amide] | > 7.00 | > 7.00
7 | O=C(Nc1ccc(-c2cnc3nc2NCCCNS(=O)(=O)c2cccc(c2)N3)cc1)C1(c2cccc(C(F)(F)F)c2)CC1 [Example 10, 1-(3-Trifluoromethyl-phenyl)-cyclopropane-carboxylic acid [4-(13,13-dioxo-13λ^6-thia-2,4,8,12,19-pentaaza-tricyclo[12.3.1.1^3,7]nonadeca-1(18),3(19),4,6,14,16-hexaen-6-yl)-phenyl]-amide] | > 7.00 | 6.00 to 7.00
8 | Cc1ccccc1C1(C(=O)Nc2ccc(-c3cnc4nc3NCCCNS(=O)(=O)c3cccc(c3)N4)cc2)CC1 [Example 2, 1-o-Tolyl-cyclopropane-arboxylic acid [4-(13,13-dioxo-13λ^6-thia-2,4,8,12,19-pentaaza-tricyclo[12.3.1.1^3,7]nonadeca-1(18),3(19),4,6,14,16-hexaen-6-yl)-phenyl]-amide] | > 7.00 | > 7.00
9 | O=C(Nc1ccc(-c2cnc3nc2NCCCNS(=O)(=O)c2cccc(c2)N3)cc1)C1(c2ccc(F)cc2)CC1 [Example 9, 1-(4-Fluoro-phenyl)-cyclopropane-carboxylic acid [4-(13,13-dioxo-13λ^6-thia-2,4,8,12,19-pentaaza-tricyclo[12.3.1.1^3.7]nonadeca-1(18),3(19),4,6,14,16-hexaen-6-yl)-phenyl]-amide] | > 7.00 | > 7.00
10 | O=C(Nc1ccc(-c2cnc3nc2NCCCNS(=O)(=O)c2cccc(c2)N3)cc1)C1(c2ccc(C(F)(F)F)cc2)CC1 [Example 11, 1-(4-Trifluoromethyl-phenyl)-cyclopropane-carboxylic acid [4-(13,13-dioxo-13λ^6-thia-2,4,8,12,19-pentaaza-tricyclo[12.3.1.1^3,7]nonadeca-1(18),3(19),4,6,14,16-hexaen-6-yl)-phenyl]-amide] | > 7.00 | > 7.00
11 | O=C(Nc1ccc(-c2cnc3nc2NCCCNS(=O)(=O)c2cccc(c2)N3)cc1)C1(c2ccccc2F)CC1 [Example 7, 1-(2-Fluoro-phenyl)-cyclopropane-carboxylic acid [4-(13,13-dioxo-13λ^6-thia-2,4,8,12,19-pentaaza-tricyclo[12.3.1.1^3,7]nonadeca-1(18),3(19),4,6,14,16-hexaen-6-yl)-phenyl]-amide] | > 7.00 | > 7.00
12 | O=C(Nc1ccc(-c2cnc3nc2NCCCNS(=O)(=O)c2cccc(c2)N3)cc1)C1(c2ccc(Cl)cc2)CC1 [Example 6, 1-(4-Chloro-phenyl)-cyclopropane-carboxylic acid [4-(13,13-dioxo-13λ^6-thia-2,4,8,12,19-pentaaza-tricyclo[12.3.1.1^3,7]-nonadeca-1(18),3(19),4,6,14,16-hexaen-6-yl)-phenyl]-amide] | > 7.00 | > 7.00
13 | O=C(Nc1ccc(-c2cnc3nc2NCCCNS(=O)(=O)c2cccc(c2)N3)cc1)C1(c2cccc(Cl)c2)CC1 [Example 5, 1-(3-Chloro-phenyl)-cyclopropane-arboxylic acid [4-(13,13-dioxo-13λ^6-thia-2,4,8,12,19-pentaaza-tricyclo[12.3.1.1^3,7]-nadeca-1(18),3(19),4,6,14,16-hexaen-6-yl)-phenyl]-amide] | > 7.00 | > 7.00
